In series [1] the target is T1, cTnC isolated from cattle cardiac muscle (Bos taurus, UniProt P63315).
T1 construct: cTnC isolated from cattle cardiac muscle; from tissue; host or cells: cattle cardiac muscle
Briefly: Affinity of Ca^2+ to cTnC by fluorescent probe dansyl chloride labeling. The format is binding. The note with it: for Influence on the affinity curve of cTnC to Ca^2+: 50 μmol/L; for Effect on the cTnC-Ca^2+ affinity curve: 55 μmol/L (FIG. 4). The source says: The effect of PPTA-I on the affinity of Ca^2+ to cTnC isolated from cattle cardiac muscle was studied by fluorescent probe dansyl chloride labeling to discuss the calcium sensitization mechanisms of piperphentonamine hydrochloride, and compared the results to the already known calcium sensitizers MCI-154 and sulmazole (Sul).

Series [2] is described as follows: Solubility and stability of piperphentonamine hydrochloride in water for injection. The format is physicochemical. The source says: Piperphentonamine hydrochloride with the molecular formula C21H23NO4.HCl has a molecular weight of […], batch No. 2001803, provided by Guangzhou Zhongwei Biotechnology Ltd Company. Its preparation method is described in Chinese patent No. 02125318.8. […] In order to achieve the lyophilized powder for injection with good redissolving ability and stability, piperphentonamine hydrochloride and excipient need to be dissolved in water for injection with pH 1.5 to 5.5 and then lyophilized, especially preferred water for injection with pH 2 to 3.

The conditions of series [3]: conventionally known; cited from earlier work.
Series [4] relates to myocardial ischemia-reperfusion injury in cats. Put plainly: Myocardial ischemia-reperfusion injury in cats in vivo (coronary artery arrest 30 min, reperfusion 60 min). Details: species or system cat. The conditions noted are these: 1.3 mg/kg. The method, then:
In order to further evaluate the protective effect of PPTA on myocardium injured by ischemia-reperfusion, a pathological model of myocardial ischemia-reperfusion injury in cats in vivo was established by arrest the coronary artery for 30 min, then reperfusion for 60 min, studying the effects on blood biochemistry, myocardium ultrastructure, etc.

Series [5] relates to cat heart failure model induced by verapamil. Put plainly: Cardiac hemodynamic parameters in cat heart failure model induced by verapamil, intravenous administration. The format is in vivo. The note with it: 0.1 mg/kg; for +dP/dt max, Change, % / Cardiac contractility, Change % / HR, Change % / LVEDP, Change, % / LVSP, Change, % / MAP, Change % / −dP/dt max, Change, %: vs. baseline. The method, then: To study the therapeutic effect of the novel cardiotonic and vasodilator PPTA-I on heart failure, the cardiac hemodynamic parameters were determined by a polygraph in cat heart failure model induced by verapamil.

Where [6] appears, read: treated by sonication and heating.

Consider piperphentonamine hydrochloride, for which the “Shift of cTnC-Ca^2+ affinity curve” value in series [1] (15 μmol/L) is reported as “slightly shifted to the left without statistical significance”. In series [1] (35 μmol/L), the “Shift of cTnC-Ca^2+ affinity curve” value is reported as “shifted to the left with statistical significance”. In series [1] (55 μmol/L (FIG. 3)), the “Shift of cTnC-Ca^2+ affinity curve to the left compared with the control curve” value was determined as 0.2 pCa. Also, the “Stability in water for injection” value in series [2] (easy to degrade and turn yellow) is given as “not stable”. In series [2] (setting [6]), the “Solubility in water for injection with pH 1.5 to 5.5” value is on record as “easy to be dissolved”; the “pH of water for injection with the best solubility and stability” value was 2 to 3. For the same compound, the “Solubility in water for injection” value in series [2] (untreated) is “difficult to be dissolved”. For the same compound, in series [3], the Solubility in water entry is reported as “insoluble or poor soluble in water”.
For `COc1cc([S+](C)[O-])ccc1-c1nc2ncccc2[nH]1` (stereo not drawn) [Sul, sulmazole], in series [1], the “Influence on the affinity curve of cTnC to Ca^2+” value was “no significant influence” and the “Effect on the cTnC-Ca^2+ affinity curve” value is reported as “no significant effect”.
Consider `COc1ccc(CCN(C)CCCC(C#N)(c2ccc(OC)c(OC)c2)C(C)C)cc1OC` (stereo not drawn) [verapamil], for which the “Score of myocardium pathological change” value in series [4] (injury control 2.5 ± 0.55) is 1.3 ± 0.18. Also, the “Content of cTnI” value in series [4] (serum, injury control 2.3 ± 0.62) came out at 1.4 ± 0.21. Further, in series [4] (serum, injury control 86 ± 17), the “Content of MDA” value was 65 ± 12 nmol/L. The compound further gave a CPK activity in series [4] (serum, injury control 385 ± 75) of 271 ± 80.
As for `Cc1[nH]c(=O)c(C#N)cc1-c1ccncc1` [Milrinone], in series [5], the “+dP/dt max increased by at most” value was found to be 61±26%; the “Effect on HRs” value is reported as “did not affect”; the “Effect on LVSP, LVEDP and −dP/dt max” value was “without changing”; the “MAP decreased by” value stood at 10%. Further, in series [5], the “Period of +dP/dt max increase” value is “over 20 minutes”; the “Period of the effect on MAP and cardiac contractility” value amounted to 5 min. For the same compound, in series [5] (2 min), the “+dP/dt max, Change, %” value is on record as 18 ± 23 %; the “Cardiac contractility, Change %” value is 38 ± 32 # %; the “HR, Change %” value was 0 ± 5%; the “LVEDP, Change, %” value stood at 1 ± 2%. Besides, in series [5] (2 min), the “LVSP, Change, %” value was 4 ± 11%; the “MAP, Change %” value is −4 ± 4 %; the “−dP/dt max, Change, %” value amounted to 0 ± 23%. In series [5] (5 min), the “+dP/dt max, Change, %” value was 52 ± 24 ### %; the “Cardiac contractility, Change %” value was 92 ± 80 # %; the “HR, Change %” value was determined as 2 ± 15%; the “LVEDP, Change, %” value came out at 5 ± 16%. In series [5] (5 min), the “LVSP, Change, %” value is listed as 5 ± 15%; the “MAP, Change %” value is recorded as −10 ± 8 # %; the “−dP/dt max, Change, %” value is on record as 3 ± 19%. In addition, in series [5] (10 min), the “+dP/dt max, Change, %” value is given as 61 ± 26 ### %; the “Cardiac contractility, Change %” value was 71 ± 78 %; the “HR, Change %” value is 2 ± 16%; the “LVEDP, Change, %” value is given as −1 ± 5%. Further, in series [5] (10 min), the “LVSP, Change, %” value was found to be 6 ± 17%; the “MAP, Change %” value is −10 ± 6 ## %; the “−dP/dt max, Change, %” value amounted to 11 ± 20%. For the same compound, in series [5] (15 min), the “+dP/dt max, Change, %” value is recorded as 54 ± 33 ## %; the “Cardiac contractility, Change %” value is on record as 58 ± 74 %; the “HR, Change %” value stood at 3 ± 16%; the “LVEDP, Change, %” value is listed as −7 ± 16%. Also, in series [5] (15 min), the “LVSP, Change, %” value is listed as 3 ± 18%; the “MAP, Change %” value is on record as −10 ± 8 # %; the “−dP/dt max, Change, %” value amounted to 8 ± 23%. In addition, in series [5] (20 min), the “+dP/dt max, Change, %” value is on record as 61 ± 45 # %; the “Cardiac contractility, Change %” value is on record as 61 ± 69 %; the “HR, Change %” value is −13 ± 37%; the “LVEDP, Change, %” value is given as 2 ± 11%. Moreover, in series [5] (20 min), the “LVSP, Change, %” value worked out at 4 ± 22%; the “MAP, Change %” value is −8 ± 12%; the “−dP/dt max, Change, %” value is −4 ± 22%.
Turning to `O=C1CCC(c2ccc(Nc3ccncc3)cc2)=NN1` [MCI-154], in series [1], the “Influence on the affinity curve of cTnC to Ca^2+” value is on record as “no significant influence” and the “Effect on the cTnC-Ca^2+ affinity curve” value was “no significant effect”.

The record behind these values is US8513301B2, “Kind of piperphentonamine hydrochloride lyophilized powder for injection and preparation and use thereof” (Guangzhou Zhongwei Biotechnology Ltd., priority 2007, dated 2013).
